Values quoted from earlier work in US7838544B2, “Heterocyclic inhibitors of 11-β hydroxyl steroid dehydrogenase type 1 and methods of using the same” (Incyte Corporation, priority 2006, dated 2010).

Target: T1, 11βHSD1 in the eye (Homo sapiens, UniProt P28845)
T1 construct: host or cells: eye of healthy volunteers, in vivo (11βHSD1 localized to non-pigmented epithelial cells)
Conditions: healthy volunteers, after seven days of carbenoxolone treatment

T1 sequence (P28845 whole entry): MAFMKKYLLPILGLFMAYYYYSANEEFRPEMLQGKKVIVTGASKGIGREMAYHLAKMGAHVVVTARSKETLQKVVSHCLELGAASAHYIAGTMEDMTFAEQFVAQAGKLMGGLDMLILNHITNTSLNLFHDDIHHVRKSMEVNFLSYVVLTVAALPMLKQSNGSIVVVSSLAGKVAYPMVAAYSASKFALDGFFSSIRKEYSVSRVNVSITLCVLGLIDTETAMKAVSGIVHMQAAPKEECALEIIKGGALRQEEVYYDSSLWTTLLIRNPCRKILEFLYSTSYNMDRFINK

reduction of intra-ocular pressure (IOP): 18%
SMILES: CC1(C)[C@@H](OC(=O)CCC(=O)O)CC[C@]2(C)[C@H]3C(=O)C=C4[C@@H]5C[C@@](C)(C(=O)O)CC[C@]5(C)CC[C@@]4(C)[C@]3(C)CC[C@@H]12 [carbenoxolone]
